The target in the series is T1, hERG K+ channel (Kv11.1) (Homo sapiens, UniProt Q12809).
T1 construct: gene KCNH2
Put plainly: two-microelectrode voltage clamp, hERG tail current inhibition in Xenopus oocytes; alanine mutants Y652A and F656A reduce block. The series is classed as cell-based.

One may read the IC50 as the concentration needed to halve the response being measured. A high value points to a need for much substance.

T1 sequence (Q12809 whole entry): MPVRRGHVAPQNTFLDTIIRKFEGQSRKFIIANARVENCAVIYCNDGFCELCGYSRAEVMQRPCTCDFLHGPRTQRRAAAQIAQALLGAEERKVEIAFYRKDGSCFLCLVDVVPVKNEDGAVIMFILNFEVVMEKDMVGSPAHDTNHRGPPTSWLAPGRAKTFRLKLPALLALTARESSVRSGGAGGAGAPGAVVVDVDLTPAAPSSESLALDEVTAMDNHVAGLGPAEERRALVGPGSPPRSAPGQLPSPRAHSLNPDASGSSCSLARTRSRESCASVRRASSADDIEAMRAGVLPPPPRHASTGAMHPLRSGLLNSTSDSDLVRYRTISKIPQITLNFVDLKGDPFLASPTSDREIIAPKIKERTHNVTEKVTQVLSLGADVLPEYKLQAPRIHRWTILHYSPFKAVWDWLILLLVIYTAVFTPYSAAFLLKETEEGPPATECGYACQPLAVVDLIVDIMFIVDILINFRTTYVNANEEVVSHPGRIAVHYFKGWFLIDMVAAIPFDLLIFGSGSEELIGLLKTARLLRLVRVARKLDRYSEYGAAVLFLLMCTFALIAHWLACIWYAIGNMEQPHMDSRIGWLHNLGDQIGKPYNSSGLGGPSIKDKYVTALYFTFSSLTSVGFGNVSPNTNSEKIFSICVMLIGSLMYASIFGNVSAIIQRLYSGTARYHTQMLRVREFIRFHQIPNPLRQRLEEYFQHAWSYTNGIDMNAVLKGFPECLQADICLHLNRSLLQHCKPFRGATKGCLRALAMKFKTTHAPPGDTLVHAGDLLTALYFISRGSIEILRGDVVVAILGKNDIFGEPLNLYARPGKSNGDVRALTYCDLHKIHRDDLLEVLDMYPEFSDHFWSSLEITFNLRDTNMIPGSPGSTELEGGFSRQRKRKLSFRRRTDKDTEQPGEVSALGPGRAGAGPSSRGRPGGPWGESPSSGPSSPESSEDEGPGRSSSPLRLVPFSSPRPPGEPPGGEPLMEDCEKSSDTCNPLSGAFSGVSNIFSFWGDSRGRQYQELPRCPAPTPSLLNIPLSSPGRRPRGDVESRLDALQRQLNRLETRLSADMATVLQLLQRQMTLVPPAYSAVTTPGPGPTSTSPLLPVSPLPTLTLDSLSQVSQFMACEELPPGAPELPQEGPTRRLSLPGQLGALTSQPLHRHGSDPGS

Turning to `O=C(CCc1ccccc1)c1ccccc1OCC(O)CN1CCN(C(c2ccccc2)(c2ccccc2)c2ccccc2)CC1` (stereo not shown) [FB213, 1-[2-(2-hydroxy-3-(4-tritylpiperazin-1-yl)-propoxy)phenyl]-3-phenylpropan-1-one], it took 47.1 ± 5.1 µM to reach half-maximal inhibition (IC50).

The record behind these values is PMC5292991, “Drug trapping in hERG K^+ channels: (not) a matter of drug size?” (Medchemcomm, 2015).
